Source: ChEMBL document CHEMBL5154783, “Design, synthesis, and evaluation of novel 3-thiophene derivatives as potent fungistatic and fungicidal reagents based on a conformational restriction strategy” (Eur J Med Chem, 2022)
Values after ≈ are worked out from the molar mass of the structure shown. Active and inactive are the calls of the source. The calls are words filed in the database; no cut-off is given here.

Key:
[1] = Cytotoxicity against human THLE-2 cells assessed as reduction in cell viability incubated for 96 hrs by MTT assay; assay type: toxicity, cell-based
Candida albicans [2] = test: Antifungal activity against Candida albicans ATCC SC5314 assessed as fungal growth inhibition by CLSI based serial microbroth dilution method; assay type: functional
Candida albicans [3] = test: Antifungal activity against Candida albicans CPCC400616 assessed as fungal growth inhibition by CLSI based serial microbroth dilution method; assay type: functional
Candida tropicalis = test: Antifungal activity against Candida tropicalis CGMCC 2.3739 assessed as fungal growth inhibition by CLSI based serial microbroth dilution method; assay type: functional
Cryptococcus neoformans = test: Antifungal activity against Cryptococcus neoformans CGMCC 2.3161 assessed as fungal growth inhibition by CLSI based serial microbroth dilution method; assay type: functional
Candida parapsilosis = test: Antifungal activity against Candida parapsilosis GIM 2.190 assessed as fungal growth inhibition by CLSI based serial microbroth dilution method; assay type: functional; conditions: Lodderomyces parapsilosis
Nakaseomyces glabratus = test: Antifungal activity against Candida glabrata clinical isolate assessed as fungal growth inhibition by CLSI based serial microbroth dilution method; assay type: functional
Pichia kudriavzevii = test: Antifungal activity against Candida krusei GIM 2.1 assessed as fungal growth inhibition by CLSI based serial microbroth dilution method; assay type: functional
Aspergillus fumigatus = test: Antifungal activity against Aspergillus fumigatus CGMCC 3.7795 assessed as fungal growth inhibition by CLSI based serial microbroth dilution method; assay type: functional
Candida albicans [4] = test: Antifungal activity against FLC and ITC-resistant Candida albicans 17 assessed as fungal growth inhibition by CLSI based serial microbroth dilution method; assay type: functional
Candida albicans [5] = test: Antifungal activity against FLC-resistant Candida albicans CaR assessed as fungal growth inhibition by CLSI based serial microbroth dilution method; assay type: functional
Candida albicans [6] = test: Antifungal activity against FLC-resistant Candida albicans 901 assessed as fungal growth inhibition by CLSI based serial microbroth dilution method; assay type: functional
Candida albicans [7] = test: Antifungal activity against FLC-resistant Candida albicans 904 assessed as fungal growth inhibition by CLSI based serial microbroth dilution method; assay type: functional
Candida albicans [8] = test: Antifungal activity against FLC-resistant Candida albicans 632 assessed as fungal growth inhibition by CLSI based serial microbroth dilution method; assay type: functional
Candida albicans [9] = test: Antifungal activity against FLC-resistant Candida albicans 100 assessed as fungal growth inhibition by CLSI based serial microbroth dilution method; assay type: functional
Candida albicans [10] = test: Antifungal activity against FLC-resistant Candida albicans 103 assessed as fungal growth inhibition by CLSI based serial microbroth dilution method; assay type: functional
Candida albicans [11] = test: Antifungal activity against FLC-resistant Candida albicans 311 assessed as fungal growth inhibition by CLSI based serial microbroth dilution method; assay type: functional
[12] = target: T1, Lanosterol 14-alpha demethylase (Candida albicans (strain SC5314 / ATCC MYA-2876) (Yeast), UniProt P10613); test: Inhibition of CYP51 in Candida albicans ATCC SC5314 assessed as lanosterol level at 0.0075 ug/ml measured after 18 hrs by GC-MS analysis relative to control; design: scale not given: the % may be the effect or the level left; conditions: at 0.0075 µg/mL
T1 sequence (P10613 whole entry): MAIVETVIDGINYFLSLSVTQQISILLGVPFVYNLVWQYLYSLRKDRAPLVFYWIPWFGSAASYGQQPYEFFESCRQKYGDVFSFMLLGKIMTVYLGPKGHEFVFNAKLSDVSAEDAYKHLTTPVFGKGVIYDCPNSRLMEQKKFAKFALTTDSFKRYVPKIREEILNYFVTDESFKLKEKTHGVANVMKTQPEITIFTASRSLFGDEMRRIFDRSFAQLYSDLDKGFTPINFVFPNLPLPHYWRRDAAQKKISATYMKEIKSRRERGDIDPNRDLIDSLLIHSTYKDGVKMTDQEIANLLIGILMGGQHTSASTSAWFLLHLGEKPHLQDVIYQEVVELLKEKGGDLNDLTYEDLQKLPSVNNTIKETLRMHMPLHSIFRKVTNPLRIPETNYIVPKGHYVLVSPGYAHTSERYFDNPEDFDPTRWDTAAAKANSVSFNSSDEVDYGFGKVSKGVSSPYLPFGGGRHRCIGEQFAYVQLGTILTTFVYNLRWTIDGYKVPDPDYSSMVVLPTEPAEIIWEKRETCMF

[13] = target: T1, Lanosterol 14-alpha demethylase; test: Inhibition of CYP51 in Candida albicans ATCC SC5314 assessed as ergosterol level at 0.0075 ug/ml measured after 18 hrs by GC-MS analysis (reference value: 96.93 %); design: scale not given: the % may be the effect or the level left; conditions: at 0.0075 µg/mL
[14] = target: T1, Lanosterol 14-alpha demethylase; test: Inhibition of CYP51 in Candida albicans ATCC SC5314 assessed as eburicol level at 0.0075 ug/ml measured after 18 hrs by GC-MS analysis relative to control; design: scale not given: the % may be the effect or the level left; conditions: at 0.0075 µg/mL
[15] = target: T1, Lanosterol 14-alpha demethylase; test: Inhibition of CYP51 in Candida albicans ATCC SC5314 assessed as 14alpha-methylergosta-8,24(28)-dien-3beta-6alpha-diol level at 0.0075 ug/ml measured after 18 hrs by GC-MS analysis relative to control; design: scale not given: the % may be the effect or the level left; conditions: at 0.0075 µg/mL
[16] = target: T1, Lanosterol 14-alpha demethylase; test: Inhibition of CYP51 in Candida albicans ATCC SC5314 assessed as unknown sterol level at 0.0075 ug/ml measured after 18 hrs by GC-MS analysis (reference value: 3.07 %); design: scale not given: the % may be the effect or the level left; conditions: at 0.0075 µg/mL
Cell membrane [17] = test: Disruption of membrane integrity in Candida albicans ATCC SC5314 assessed as rupture of fungal cells at 16 ug/ml incubated for 48 hrs by transmission electron microscopy; assay type: subcellular; conditions: dose 16.0 µg/ml
Cell membrane [18] = test: Disruption of membrane integrity in Candida albicans ATCC SC5314 assessed as cell membrane damage at 16 ug/ml incubated for 48 hrs by transmission electron microscopy; assay type: subcellular; conditions: dose 16.0 µg/ml
Cell membrane [19] = test: Disruption of membrane integrity in Candida albicans ATCC SC5314 assessed as endogenous substances leakage at 16 ug/ml incubated for 48 hrs by transmission electron microscopy; assay type: subcellular; conditions: dose 16.0 µg/ml
Candida albicans [20] = test: Antibiofilm activity against Candida albicans […] assessed as inhibition of […] metabolism within the biofilm measured after 3 hrs by XTT reduction assay; assay type: functional
Candida albicans [21] = test: Antibiofilm activity against Candida albicans […] assessed as inhibition of […] metabolism within the biofilm measured after 6 hrs by XTT reduction assay; assay type: functional
Candida albicans [22] = test: Antibiofilm activity against Candida albicans […] assessed as inhibition of […] metabolism within the biofilm measured after 18 hrs by XTT reduction assay; assay type: functional
Candida albicans [23] = test: Antibiofilm activity against Candida albicans […] assessed as inhibition of […] metabolism activity in the biofilm measured after 24 hrs by XTT reduction assay; assay type: functional
Candida albicans [24] = test: Antibiofilm activity against Candida albicans […] assessed as inhibition of […] metabolism activity in the biofilm measured after 48 hrs by XTT reduction assay; assay type: functional
Candida albicans [25] = test: Fungicidal activity against Candida albicans CPCC400616 measured after 48 hrs; assay type: functional
Candida albicans [26] = test: Fungicidal activity in Candida albicans CPCC400616 assessed as reduction in viable colony formation at 0.25 ug/ml measured within 16 hrs by time kill assay; assay type: functional, organism-based; conditions: dose 0.25 µg/ml
A549 = test: Cytotoxicity against human A549 cells assessed as reduction in cell viability incubated for 96 hrs by MTT assay; assay type: functional, cell-based; conditions: A549, 96 h
MCF7 = test: Cytotoxicity against human MCF7 cells assessed as reduction in cell viability incubated for 96 hrs by MTT assay; assay type: functional, cell-based; conditions: MCF7, 96 h
[27] = Cytotoxicity against human HepG2 cells assessed as reduction in cell viability incubated for 96 hrs by MTT assay; assay type: toxicity, cell-based
RAW264.7 = test: Cytotoxicity against mouse RAW264.7 cells assessed as reduction in cell viability incubated for 96 hrs by MTT assay; assay type: functional, cell-based; conditions: RAW264.7, 96 h
[28] = Stability of the compound in human plasma assessed as parent compound remaining after […] by LC-MS/MS analysis; assay type: ADME, cell-free; conditions: read-out: Stability
[29] = Stability of the compound in human plasma assessed as parent compound remaining after 120 hrs by LC-MS/MS analysis; assay type: ADME, cell-free; conditions: read-out: Stability
[30] = Stability of the compound in human plasma assessed as half life measured after […] by LC-MS/MS analysis; assay type: ADME, cell-free
Cell membrane [31] = test: Disruption of membrane integrity in Candida albicans ATCC SC5314 assessed as cell wall damage at 16 ug/ml incubated for 48 hrs by transmission electron microscopy; assay type: subcellular; conditions: dose 16.0 µg/ml

Fc1cccc(F)c1CC1(Cn2cncn2)COC(c2ccc(-c3ccsc3)cc2)=N1 (stereo not given)
IC50 at 96 h [1]: > 50 µM | MIC (Candida albicans [2]): 0.015 µg/mL (≈ 0.0344 µM) | MIC (Candida albicans [3]): 0.015 µg/mL (≈ 0.0344 µM) | MIC (Candida tropicalis): 0.03 µg/mL (≈ 0.0687 µM) | MIC (Cryptococcus neoformans): 0.06 µg/mL (≈ 0.137 µM) | MIC (Candida parapsilosis): 0.125 µg/mL (≈ 0.286 µM) | MIC (Nakaseomyces glabratus): 0.06 µg/mL (≈ 0.137 µM) | MIC (Pichia kudriavzevii): 0.125 µg/mL (≈ 0.286 µM) | MIC (Aspergillus fumigatus): 16 µg/mL (≈ 36.7 µM) | MIC (Candida albicans [4]): 4 µg/mL (≈ 9.16 µM) | MIC (Candida albicans [5]): 0.25 µg/mL (≈ 0.573 µM) | MIC (Candida albicans [6]): 0.25 µg/mL (≈ 0.573 µM) | MIC (Candida albicans [7]): 1 µg/mL (≈ 2.29 µM) | MIC (Candida albicans [8]): 4 µg/mL (≈ 9.16 µM) | MIC (Candida albicans [9]): 1 µg/mL (≈ 2.29 µM) | MIC (Candida albicans [10]): 1 µg/mL (≈ 2.29 µM) | MIC (Candida albicans [11]): 2 µg/mL (≈ 4.58 µM) | Activity [12]: 31.91% | Activity [13]: 4.61% | Activity [14]: 24.69% | Activity [15]: 28.2% | Activity [16]: 1.92% | Activity (Cell membrane [17]): Active | Activity (Cell membrane [18]): Active | Activity (Cell membrane [19]): Active | MIC50 (Candida albicans [20]): 0.125 µg/mL (≈ 0.286 µM) | MIC50 (Candida albicans [21]): 0.125 µg/mL (≈ 0.286 µM) | MIC50 (Candida albicans [22]): 2 µg/mL (≈ 4.58 µM) | MIC50 (Candida albicans [23]): 16 µg/mL (≈ 36.7 µM) | MIC50 (Candida albicans [24]): > 64 µg/mL | MFC (Candida albicans [25]): 0.25 µg/mL (≈ 0.573 µM) | Activity (Candida albicans [26]): Active | IC50 (A549): > 50 µM | IC50 (MCF7): > 50 µM | IC50 at 96 h [27]: 39.3 µM | IC50 (RAW264.7): 32.5 µM | remaining [28]: 96.8% | remaining at 120 h [29]: 98.2% | half-life [30]: > 4.8 h | Activity (Cell membrane [31]): Active
